Test results published in paper PMC11191095, “QSAR Reveals Decreased Lipophilicity of Polar Residues Determines the Selectivity of Antimicrobial Peptide Activity” (ACS Omega, 2024).
Where a SMILES comes first, the peptide text is derived from it.

Columns and labels:
[1] = system: E. coli LEC001; assay: microbe, parasite or virus in culture; format: cell-based, Escherichia coli; conditions: E. coli LEC001 (R); shown in µM
Summary of the method: (§1)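 Peptides 128→2 μg/mL, 2-fold series; inoculum ~5 × 10^5 CFU/mL from overnight culture (OD600 0.01, mixed 1:1). MHB non-cation-adjusted for bacteria, RPMI 1640 + 2% glucose for fungi. 37 °C, 20 h, OD600. MIC50/MIC90 at 50%/90% inhibition; n ≥ 3.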

[2] = system: E. coli NCTC 12923; assay: microbe, parasite or virus in culture; format: cell-based, Escherichia coli; conditions: E. coli NCTC 12923 (S); shown in µM
Summary of the method: as §1

[3] = system: P. aeruginosa NCTC 13437; assay: microbe, parasite or virus in culture; format: cell-based, Pseudomonas aeruginosa; conditions: P. aeruginosa NCTC 13437 (R); shown in µM
Summary of the method: as §1

[4] = system: P. aeruginosa PAO1; assay: microbe, parasite or virus in culture; format: cell-based, Pseudomonas aeruginosa; conditions: P. aeruginosa PAO1 (S)
Summary of the method: as §1

[5] = system: A. baumannii ATCC 17978; assay: microbe, parasite or virus in culture; format: cell-based, Acinetobacter baumannii; conditions: A. baumannii ATCC 17978 (S); shown in µM
Summary of the method: as §1

[6] = system: A. baumannii AYE; assay: microbe, parasite or virus in culture; format: cell-based, Acinetobacter baumannii; conditions: A. baumannii AYE (R); shown in µM
Summary of the method: as §1

[7] = system: K. pneumoniae M6; assay: microbe, parasite or virus in culture; format: cell-based, Klebsiella pneumoniae; conditions: K. pneumoniae M6 (S); shown in µM
Summary of the method: as §1

[8] = system: K. pneumoniae NCTC 13368; assay: microbe, parasite or virus in culture; format: cell-based, Klebsiella pneumoniae; conditions: K. pneumoniae NCTC 13368 (R); shown in µM
Summary of the method: as §1

[9] = system: S. aureus (MRSA) 1199B; assay: microbe, parasite or virus in culture; format: cell-based, Staphylococcus aureus; conditions: S. aureus (MRSA) 1199B (R); shown in µM
Summary of the method: as §1

[10] = system: S. aureus (MRSA) NCTC 13616; assay: microbe, parasite or virus in culture; format: cell-based, Staphylococcus aureus; conditions: S. aureus (MRSA) NCTC 13616 (R); shown in µM
Summary of the method: as §1

[11] = system: S. aureus (MRSA) USA300; assay: microbe, parasite or virus in culture; format: cell-based, Staphylococcus aureus; conditions: S. aureus (MRSA) USA300 (R); shown in µM
Summary of the method: as §1

[12] = system: S. aureus (MSSA) ATCC 9144; assay: microbe, parasite or virus in culture; format: cell-based, Staphylococcus aureus; conditions: S. aureus (MSSA) ATCC 9144 (S); shown in µM
Summary of the method: as §1

[13] = system: C. auris TDG 1912; assay: microbe, parasite or virus in culture; format: cell-based, Candida auris; conditions: C. auris TDG 1912
Summary of the method: as §1

[14] = system: C. albicans NCPF 3281; assay: microbe, parasite or virus in culture; format: cell-based; conditions: C. albicans NCPF 3281; shown in µM
Summary of the method: as §1

[15] = system: C. glabrata NCPF 8018; assay: microbe, parasite or virus in culture; format: cell-based; conditions: C. glabrata NCPF 8018; shown in µM
Summary of the method: as §1

[16] = system: C. krusei NCPF 3876; assay: microbe, parasite or virus in culture; format: cell-based; conditions: C. krusei NCPF 3876; shown in µM
Summary of the method: as §1

[17] = system: C. parapsilosis NCPF 3209; assay: microbe, parasite or virus in culture; format: cell-based; conditions: C. parapsilosis NCPF 3209; shown in µM
Summary of the method: as §1

[18] = system: C. tropicalis NCPF 8760; assay: microbe, parasite or virus in culture; format: cell-based; conditions: C. tropicalis NCPF 8760; shown in µM
Summary of the method: as §1

[19] = system: human erythrocytes; assay: In vitro hemolytic activity; format: cell-based; conditions: human erythrocytes in PBS, 1 h, 37 °C, OD550; from dose response curves
Summary of the method: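 Serial peptide dilutions in PBS mixed 1:1 with fresh erythrocytes, 1 h at 37 °C; supernatant OD550 measured after centrifugation. Hemolysis normalized to 0.1% Triton X-100 (full lysis) and PBS (none); HC10 and HC50 taken from dose–response curves.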

[20] = system: HaCat cell line; assay: In vitro HaCat cytotoxicity (MTT); format: cell-based, human; conditions: 21 h exposure, OD570, relative to untreated control
Experimental: The HaCat cell line (Cellonex, South Africa) was cultured in Dulbecco’s Modified Eagle Medium (DMEM) supplemented with 10% heat-inactivated fetal calf serum (FCS) and 1% antibiotic-antimycotic (Abs) and maintained at 5–10% CO2, 37 °C, 95% humidity. For cytotoxicity screening, 5.56 × 10^4 cells/mL were plated in a 96-well plate. After 24 h incubation, the cells are initially exposed to each peptide at a concentration of 256 μg/mL or 0.1% Triton-X-100 as the control for 21 h. If cytotoxicity was observed, at a level of significance of p < 0.0001 compared with the untreated control after 21 h, a dose-response assay was undertaken. Cell viability was determined by adding 10% 3-(4,5-dimethyl-2-thiazolyl)-2,5-diphenyl-2H-tetrazolium bromide (MTT) (1 mg/mL), to each well and after a further 3 h incubation the media was discarded, and the formazan crystals dissolved by adding 25% DMSO in ethanol. The absorbance was measured at OD570 by using the FLUOstar Omega multidetection microplate reader (BMG Labtech). Percentage cell viability was calculated relative to the untreated control. The LC50 was defined as the concentration of AMP treatment that results in 50% lethality of HaCat cells and was determined from the dose-response curves.

[21] = MHB, 37 °C, 20 h, OD600, min. three biological repeats
[22] = 50% growth inhibition, RPMI 1640 + 2% glucose, 37 °C, 20 h, OD600
[23] = 90% growth inhibition, RPMI 1640 + 2% glucose, 37 °C, 20 h, OD600

| SMILES | Modal MIC [1] [µM] | Modal MIC [2] [µM] | Modal MIC [3] [µM] | Modal MIC [4, 21] [µg/mL] | Modal MIC ([4]; shown in µM) [µM] | Modal MIC [5] [µM] | Modal MIC [6] [µM] | Modal MIC [7] [µM] | Modal MIC [8] [µM] | Modal MIC [9] [µM] | Modal MIC [10] [µM] | Modal MIC [11] [µM] | Modal MIC [12] [µM] | Modal MIC50 [13, 22] [µg/mL] | Modal MIC90 [13, 23] [µg/mL] | Modal MIC50 ([13]; shown in µM) [µM] | Modal MIC90 ([13]; shown in µM) [µM] | Modal MIC50 [14] [µM] | Modal MIC90 [14] [µM] | Modal MIC50 [15] [µM] | other results |
| --- | --- | --- | --- | --- | --- | --- | --- | --- | --- | --- | --- | --- | --- | --- | --- | --- | --- | --- | --- | --- | --- |
| CC[C@H](C)[C@H](NC(=O)[C@H](CCCCN)NC(=O)[C@H](CCC(=O)O)NC(=O)[C@H](Cc1c[nH]c2ccccc12)NC(=O)[C@H](Cc1ccccc1)NC(=O)[C@H](CCCCN)NC(=O)CNC(=O)[C@H](CC(C)C)NC(=O)[C@H](C)N)C(=O)N[C@@H](CCCCN)C(=O)N[C@@H](CO)C(=O)N[C@@H](CC(C)C)C(=O)N[C@@H](Cc1ccccc1)C(N)=O [A1F5K8-IsCTa] (H-ALGKFWEKIKSLF-NH2) | 5 | 5 | 39.9 | > 128 | > 79.9 | 2.5 | 5 | 10 | 10 | 5 | 10 | 10 | 2.5 | > 128 | > 128 | > 79.9 | > 79.9 | 39.9 | 39.9 | 39.9 | Modal MIC90 [15]: 79.9 µM; Modal MIC50 [16]: 19.9 µM; Modal MIC90 [16]: 19.9 µM; Modal MIC50 [17]: 39.8 µM; Modal MIC90 [17]: 39.8 µM; Modal MIC50 [18]: 5 µM; Modal MIC90 [18]: 5 µM; HC10 (concentration causing 10% hemolysis) [19]: 102 µg/mL; % HaCat cell death at initial screening (256μg/mL) ± SD [20]: 83.6 ±9.2% |
| CC[C@H](C)[C@H](N)C(=O)N[C@@H](CC(C)C)C(=O)N[C@@H](CCCCN)C(=O)N[C@@H](CCCCN)C(=O)N[C@H](C(=O)N[C@@H](Cc1c[nH]c2ccccc12)C(=O)N[C@@H](CCC(=O)O)C(=O)NCC(=O)N[C@H](C(=O)N[C@@H](CCCCN)C(=O)N[C@@H](CO)C(=O)N[C@@H](CC(C)C)C(=O)N[C@@H](Cc1ccccc1)C(N)=O)[C@@H](C)CC)[C@@H](C)CC [K3-IsCTa] (H-ILKKIWEGIKSLF-NH2) | 5 | 5 | 39.8 | > 128 | > 79.5 | 2.5 | 5 | 9.9 | 9.9 | 5 | 5 | 9.9 | 5 | > 128 | > 128 | > 79.5 | > 79.5 | 19.9 | 39.8 | 39.8 | Modal MIC90 [15]: 39.8 µM; Modal MIC50 [16]: 9.9 µM; Modal MIC90 [16]: 19.9 µM; Modal MIC50 [17]: 39.8 µM; Modal MIC90 [17]: 39.8 µM; Modal MIC50 [18]: 2.5 µM; Modal MIC90 [18]: 5 µM; HC10 (concentration causing 10% hemolysis) [19]: 84 µg/mL; % HaCat cell death at initial screening (256μg/mL) ± SD [20]: 104.1 ± 11.9% |
